Consider 2 molecules from patent US11242346B2, “Mechanistic target of rapamycin signaling pathway inhibitors and therapeutic applications thereof” (SUZHOU KINTOR PHARMACEUTICALS, INC., priority 2016, dated 2022).

The nature of series [1]: Stability noted on isolation of the compound. Format: physicochemical. Conditions: after Prep-TLC purification. On the procedure: To a mixture of compound 33 (80 mg, 0.28 mmol), compound 2 (22 mg, 0.09 mmol) and 2M Na2CO3 (1.2 mL) was added dioxane (6 mL). N2 was bubbled through the solution for 1.5 minutes, at which time Pd(dppf)Cl2 (12 mg, […]) was added. The reaction was stirred at 100° C. for 1 hour under N2. After cooling to room temperature, Ethyl acetate was added and the resulting slurry was sonicated and filtered. Additional ethyl acetate was used to wash the solid. The combined organic extracts were concentrated and the crude material was purified by Prep-TLC using Petroleum ether:Ethyl acetate (3:1) affording to Example 33 (10 mg),and the compound was unstable. ^1H NMR (400 MHz, CDCl3): δ 8.83 (s, 1H), 7.68-7.64 (m, 1H), 6.74-6.78 (m, 1H), 6.70-6.73 (m, 1H), 5.53 (bs, 2H), 4.11-4.04 (m, 4H), 3.87-3.82 (m, 4H). ESI-MS (M+H)^+: 366.1

Series [2] in a line: Metabolic stability in human liver microsome (HLM). Conditions: incubation with human liver microsome for 60 min. Format: in vitro ADME. On the procedure:
(§1) Active mTOR inhibitors in enzymatic and/or cell-based assays herein were evaluated for pharmacokinetic properties. Preferable compounds are with pharmacokinetic properties of low clearance, long half-life and/or good oral bioavailability (Fpo). In vitro, selected example compounds were evaluated for metabolic stability by incubating with human liver microsome (HLM) for 60 min. Compounds that were metabolized slower (i.e. higher % remaining) are preferred. […] The more metabolic stable example compounds in the HLM assay were further evaluated for pharmacokinetic properties in vivo. In a representative experiment, selected example compounds were dosed to rats intravenously (IV, 5 mg/kg, 30% PEG400+30% PG+1% DMSO in saline) and orally (PO, 10 mg/kg, 2.4% DMSO+0.1% Tween80 in 0.5% CMC-Na), rat blood samples were taken at designed time points after dosing and analyzed for tested drug concentrations using LC-MS/MS. Pharmacokinetic parameters were derived from the time curve of drug concentrations.
Background: Microsomes from liver hold many membrane-bound enzymes, among them those of drug oxidation.

The subject of another series is PC-3. Briefly: NCI60 panel growth inhibition, PC-3. The format is cell-based. The settings on record: Homo sapiens. Here is the method: (§2) Cell growth inhibitory activities against cancer cells of the present compounds were also evaluated by submitting selected the example compounds to US NCI-Chemotherapeutic Agents Repository for screening against NCI60 panel. The United States NCI-60 platform is a cancer cell platform established with 60 different human cancer cell lines from 9 different kinds of organs. This platform represents the biological characteristics of the corresponding tumor type. The drugs were screened by measuring the ability of each test compound at a range of concentrations to inhibit the growth of various tumor cells.

The subject of the next series is NCI-H23. Briefly: NCI60 panel growth inhibition, NCI-H23. The format is cell-based. Conditions: Homo sapiens. On the procedure: as §2
For another series, the system named is SKOV-3. Briefly: NCI60 panel growth inhibition, SKOV-3. The format is cell-based. The settings on record: Homo sapiens, SK-OV-3. Here is the method: as §2
A further series has as its system NCI 60 human cell lines. Nature of the series: NCI60 panel growth inhibition, average over 60 cell lines. Format: cell-based. On the procedure:
as §2

Another series concerns the target FGFR1 (Homo sapiens, UniProt P11362). Briefly: SelectScreen Profiling, Z'-LYTE kinase assay, FGFR1. Conditions: 1 μM compound, ATP at Km, read-out: FGFR 1 inh % @1 μM. The format is biochemical. The source says: (§3) Some of the example compounds were submitted to Life Technologies Corporation SelectScreen® Profiling Service to test their potency in inhibiting the kinase catalytic activities of mTOR, PI3Kα, VEGF2, FGFR1, HER1 (EGFR) and HER2. A concentration of ATP at the Km of the corresponding kinase was used for all assays. The mTOR (FRAP1), VEGF2, FGFR1, HER1 (EGFR) and HER2 assays used Z′-LYTE® technology. The PI3Kα assay used Adapta® technology. The symbol “inh %” as used herein generally refers to inhibition percentage.

A further series concerns MCF-7. Nature of the series: NCI60 panel growth inhibition, MCF-7. Format: cell-based. The settings on record: Homo sapiens, MCF7. On the procedure:
as §2

The target in a further series is PI3Kα (Homo sapiens, UniProt P42336). Nature of the series: SelectScreen Profiling, Adapta kinase assay, PI3Kα. Conditions: 0.1 μM compound, ATP at Km, read-out: PI3Kα inh % @0.1 μM. The format is biochemical.
The next series addresses HER1 (EGFR) (Homo sapiens, UniProt P00533). Nature of the series: SelectScreen Profiling, Z'-LYTE kinase assay, HER1 (EGFR). The format is biochemical. Conditions: 1 μM compound, ATP at Km, read-out: HER1 inh % @1 μM.
Excerpt: as §3

In a further series the test system is A549. Briefly: NCI60 panel growth inhibition, A549. The format is cell-based. Conditions: Homo sapiens. On the procedure:
as §2

For another series, the target named is mTOR (FRAP1) (Homo sapiens, UniProt P42345). Briefly: SelectScreen Profiling, Z'-LYTE kinase assay, mTOR (FRAP1). Format: biochemical. Conditions: 0.1 μM compound, ATP at Km, read-out: mTOR inh% @0.1 μM.
Excerpt: as §3

The next series concerns NCI-H460. Briefly: NCI60 panel growth inhibition, NCI-H460. Format: cell-based. The settings on record: Homo sapiens. Here is the method: as §2
The test system of series [3] is mammalian tumor cell lines such as PC-3, LNCAP, U87, Huh-7, HepG2 and MDA-MB-468. Nature of the series: Cell proliferation/survival MTT assay in tumor cell lines. The format is cell-based. The settings on record: 5 days (120 h) culture; cell line not specified; read-out: IC50, inhibition of tumor cell growth (MTT). Here is the method: The cytotoxic or cytostatic activity of Formula I-III exemplary compounds was measured by establishing proliferating mammalian tumor cell lines such as PC-3, LNCAP, U87, Huh-7, HepG2 and MDA-MB-468 in a cell culture medium, adding a test compound, culturing the cells for a period of 5 days by measuring cell viability via MTT assays. Dose response data were obtained for each test compound and the degree of inhibition of tumor cell growth was expressed as an IC50 value. […] For example. For example, compounds of example 14, 15, 46,29, 45, 49, 122, 88, 54, 55, 58, 59, 63, 64, 66, 67, 68, 113, 86, 90.
PC-3 (or U87) cells were seeded in 96-well plates at low density (at 2,000 cells per well) in media supplemented with 10% FBS (growth media) and transferred to serum-free media (1% FBS) after 24 h. Designated concentrations of drug were added to each well. The cells were incubated for 120 h. At the end of drug exposure, 20 μL/well of MTT solution was added. After 4 h at 37° C. in a humidified 5% CO2 atmosphere, the absorbance at 490 nm was recorded by using a microplate reader. IC50 was calculated using GraphPad Prism version 5 for Windows. The curves were fit using a nonlinear regression model with a log (inhibitor) versus response formula.
A general note: Formazan colour is commonly taken as a measure of viable cells.

The target of a further series is VEGF2 (Homo sapiens, UniProt P35968). Briefly: SelectScreen Profiling, Z'-LYTE kinase assay, VEGF2. Format: biochemical. The settings on record: 1 μM compound, ATP at Km, read-out: VEGF 2 inh % @1 μM.
Excerpt: as §3

Series [4] in a line: Rat pharmacokinetic study (IV and PO). Format: in vivo. On the procedure: as §1
A further series has as its system HCT-116. Briefly: NCI60 panel growth inhibition, HCT-116. Format: cell-based. The settings on record: Homo sapiens. Here is the method: as §2
A further series has as its target HER2 (Homo sapiens, UniProt P04626). Briefly: SelectScreen Profiling, Z'-LYTE kinase assay, HER2. Conditions: 1 μM compound, ATP at Km, read-out: HER2 inh % @1 μM. Format: biochemical.
Excerpt: as §3

Chain of HER2 (P04626 23-1255): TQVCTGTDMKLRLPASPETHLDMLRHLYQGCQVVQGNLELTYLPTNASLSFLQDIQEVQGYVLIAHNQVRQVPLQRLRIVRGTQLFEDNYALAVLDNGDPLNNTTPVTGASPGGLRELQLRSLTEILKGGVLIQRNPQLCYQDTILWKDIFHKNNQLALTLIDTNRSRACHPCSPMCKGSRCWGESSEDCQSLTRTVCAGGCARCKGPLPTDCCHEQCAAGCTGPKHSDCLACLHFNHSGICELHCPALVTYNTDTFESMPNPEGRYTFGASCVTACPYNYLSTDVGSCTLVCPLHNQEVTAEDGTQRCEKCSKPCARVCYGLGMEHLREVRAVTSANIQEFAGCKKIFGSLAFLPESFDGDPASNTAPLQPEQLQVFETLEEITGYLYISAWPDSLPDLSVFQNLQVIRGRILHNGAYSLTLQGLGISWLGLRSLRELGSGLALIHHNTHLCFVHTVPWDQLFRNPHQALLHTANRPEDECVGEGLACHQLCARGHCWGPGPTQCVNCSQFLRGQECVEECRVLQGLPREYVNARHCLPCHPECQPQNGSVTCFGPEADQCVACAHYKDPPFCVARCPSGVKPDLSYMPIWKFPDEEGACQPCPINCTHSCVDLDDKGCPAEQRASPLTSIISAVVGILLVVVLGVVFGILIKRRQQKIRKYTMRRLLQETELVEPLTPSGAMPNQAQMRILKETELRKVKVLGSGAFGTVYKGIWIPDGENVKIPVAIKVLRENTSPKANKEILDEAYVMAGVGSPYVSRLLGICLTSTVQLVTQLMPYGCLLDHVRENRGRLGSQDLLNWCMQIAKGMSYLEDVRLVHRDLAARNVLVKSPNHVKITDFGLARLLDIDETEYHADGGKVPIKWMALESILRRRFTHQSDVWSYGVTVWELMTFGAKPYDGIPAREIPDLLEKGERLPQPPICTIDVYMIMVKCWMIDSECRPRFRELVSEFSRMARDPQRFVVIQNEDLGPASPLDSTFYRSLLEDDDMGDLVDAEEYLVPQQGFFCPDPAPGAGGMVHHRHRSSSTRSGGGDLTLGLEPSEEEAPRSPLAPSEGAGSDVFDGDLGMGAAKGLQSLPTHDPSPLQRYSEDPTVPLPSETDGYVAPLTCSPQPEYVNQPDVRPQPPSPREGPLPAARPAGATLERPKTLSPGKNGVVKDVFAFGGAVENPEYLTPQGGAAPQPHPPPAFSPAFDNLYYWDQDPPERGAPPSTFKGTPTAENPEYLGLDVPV
Chain of FGFR1 (P11362 22-822): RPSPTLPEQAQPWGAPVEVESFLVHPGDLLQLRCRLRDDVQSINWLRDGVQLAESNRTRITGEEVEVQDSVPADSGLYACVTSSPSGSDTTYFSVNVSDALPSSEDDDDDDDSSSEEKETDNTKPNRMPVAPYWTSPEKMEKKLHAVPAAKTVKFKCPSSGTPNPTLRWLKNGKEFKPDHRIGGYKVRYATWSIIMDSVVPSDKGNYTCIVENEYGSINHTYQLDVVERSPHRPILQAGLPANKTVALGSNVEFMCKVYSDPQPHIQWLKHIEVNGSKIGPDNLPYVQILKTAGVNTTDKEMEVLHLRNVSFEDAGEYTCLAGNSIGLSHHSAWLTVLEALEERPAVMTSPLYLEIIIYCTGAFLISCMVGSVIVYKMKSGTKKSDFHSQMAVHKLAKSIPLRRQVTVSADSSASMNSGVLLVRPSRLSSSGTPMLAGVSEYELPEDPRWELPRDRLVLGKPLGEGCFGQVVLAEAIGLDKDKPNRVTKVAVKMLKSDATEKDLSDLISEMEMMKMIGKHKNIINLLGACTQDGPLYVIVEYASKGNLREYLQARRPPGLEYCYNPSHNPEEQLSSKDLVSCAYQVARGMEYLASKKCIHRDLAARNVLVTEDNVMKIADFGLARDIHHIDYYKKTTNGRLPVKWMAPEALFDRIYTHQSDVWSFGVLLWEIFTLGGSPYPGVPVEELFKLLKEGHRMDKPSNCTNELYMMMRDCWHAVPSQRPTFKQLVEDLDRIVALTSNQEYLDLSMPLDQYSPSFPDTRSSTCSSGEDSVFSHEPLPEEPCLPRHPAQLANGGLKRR
Chain of HER1 (EGFR) (P00533 25-1210): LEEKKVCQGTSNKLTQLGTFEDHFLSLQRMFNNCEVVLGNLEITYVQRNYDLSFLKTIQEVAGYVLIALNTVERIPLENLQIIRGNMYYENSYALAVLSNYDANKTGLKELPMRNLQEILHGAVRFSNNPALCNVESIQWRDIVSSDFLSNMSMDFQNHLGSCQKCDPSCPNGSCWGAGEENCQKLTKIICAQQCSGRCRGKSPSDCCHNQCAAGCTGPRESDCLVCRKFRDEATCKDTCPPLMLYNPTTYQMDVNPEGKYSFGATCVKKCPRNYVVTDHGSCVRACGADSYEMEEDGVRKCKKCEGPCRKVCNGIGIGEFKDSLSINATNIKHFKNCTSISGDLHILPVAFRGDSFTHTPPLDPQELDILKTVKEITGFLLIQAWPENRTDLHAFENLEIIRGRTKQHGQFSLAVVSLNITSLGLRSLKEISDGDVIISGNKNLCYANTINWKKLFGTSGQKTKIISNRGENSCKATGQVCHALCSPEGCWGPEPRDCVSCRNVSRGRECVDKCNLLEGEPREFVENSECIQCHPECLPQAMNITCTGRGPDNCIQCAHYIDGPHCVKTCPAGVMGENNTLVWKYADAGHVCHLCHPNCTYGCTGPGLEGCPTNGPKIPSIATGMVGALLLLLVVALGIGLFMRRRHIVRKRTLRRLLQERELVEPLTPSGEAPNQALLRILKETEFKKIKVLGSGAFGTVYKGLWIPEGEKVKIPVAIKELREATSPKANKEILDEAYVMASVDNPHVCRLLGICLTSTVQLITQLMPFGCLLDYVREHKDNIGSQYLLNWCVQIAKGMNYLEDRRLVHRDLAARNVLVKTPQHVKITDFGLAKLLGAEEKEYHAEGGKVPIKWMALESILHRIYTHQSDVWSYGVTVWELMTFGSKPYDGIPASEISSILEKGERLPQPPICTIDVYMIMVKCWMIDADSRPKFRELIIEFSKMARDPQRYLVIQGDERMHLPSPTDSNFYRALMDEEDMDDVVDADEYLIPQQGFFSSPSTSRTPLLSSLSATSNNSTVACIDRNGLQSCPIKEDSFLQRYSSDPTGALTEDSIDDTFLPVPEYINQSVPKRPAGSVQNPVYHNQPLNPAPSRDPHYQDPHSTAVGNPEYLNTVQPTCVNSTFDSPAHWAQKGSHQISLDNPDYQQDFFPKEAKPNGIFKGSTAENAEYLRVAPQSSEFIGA
Chain of PI3Kα (P42336 whole entry): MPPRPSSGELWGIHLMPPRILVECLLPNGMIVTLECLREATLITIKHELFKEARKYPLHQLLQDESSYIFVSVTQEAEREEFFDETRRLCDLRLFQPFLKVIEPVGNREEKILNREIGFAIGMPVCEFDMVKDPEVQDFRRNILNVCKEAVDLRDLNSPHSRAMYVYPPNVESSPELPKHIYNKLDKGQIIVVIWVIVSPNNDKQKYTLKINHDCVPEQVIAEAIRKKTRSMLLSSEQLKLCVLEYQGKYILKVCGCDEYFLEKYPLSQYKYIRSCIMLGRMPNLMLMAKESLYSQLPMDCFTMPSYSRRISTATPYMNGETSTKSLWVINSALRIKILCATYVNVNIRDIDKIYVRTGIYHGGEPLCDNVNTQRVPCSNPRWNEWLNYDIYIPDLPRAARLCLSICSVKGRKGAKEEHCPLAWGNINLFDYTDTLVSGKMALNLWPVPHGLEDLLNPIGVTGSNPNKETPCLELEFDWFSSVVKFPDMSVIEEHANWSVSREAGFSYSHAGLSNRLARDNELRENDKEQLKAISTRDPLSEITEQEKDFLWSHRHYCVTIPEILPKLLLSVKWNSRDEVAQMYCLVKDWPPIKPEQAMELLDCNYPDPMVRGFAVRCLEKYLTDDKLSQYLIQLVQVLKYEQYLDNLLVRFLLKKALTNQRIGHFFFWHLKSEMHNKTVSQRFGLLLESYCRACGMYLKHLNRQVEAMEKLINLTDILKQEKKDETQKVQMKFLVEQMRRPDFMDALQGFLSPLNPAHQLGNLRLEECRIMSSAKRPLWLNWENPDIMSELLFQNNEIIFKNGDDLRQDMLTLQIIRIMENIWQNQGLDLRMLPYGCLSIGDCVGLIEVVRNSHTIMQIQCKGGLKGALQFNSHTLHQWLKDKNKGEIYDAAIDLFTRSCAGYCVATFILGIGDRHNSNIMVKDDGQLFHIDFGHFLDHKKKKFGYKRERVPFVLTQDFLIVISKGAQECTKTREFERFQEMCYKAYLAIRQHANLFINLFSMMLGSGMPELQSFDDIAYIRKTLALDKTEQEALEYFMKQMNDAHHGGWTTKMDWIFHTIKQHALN
Chain of PI3Kα (P27986 whole entry partner): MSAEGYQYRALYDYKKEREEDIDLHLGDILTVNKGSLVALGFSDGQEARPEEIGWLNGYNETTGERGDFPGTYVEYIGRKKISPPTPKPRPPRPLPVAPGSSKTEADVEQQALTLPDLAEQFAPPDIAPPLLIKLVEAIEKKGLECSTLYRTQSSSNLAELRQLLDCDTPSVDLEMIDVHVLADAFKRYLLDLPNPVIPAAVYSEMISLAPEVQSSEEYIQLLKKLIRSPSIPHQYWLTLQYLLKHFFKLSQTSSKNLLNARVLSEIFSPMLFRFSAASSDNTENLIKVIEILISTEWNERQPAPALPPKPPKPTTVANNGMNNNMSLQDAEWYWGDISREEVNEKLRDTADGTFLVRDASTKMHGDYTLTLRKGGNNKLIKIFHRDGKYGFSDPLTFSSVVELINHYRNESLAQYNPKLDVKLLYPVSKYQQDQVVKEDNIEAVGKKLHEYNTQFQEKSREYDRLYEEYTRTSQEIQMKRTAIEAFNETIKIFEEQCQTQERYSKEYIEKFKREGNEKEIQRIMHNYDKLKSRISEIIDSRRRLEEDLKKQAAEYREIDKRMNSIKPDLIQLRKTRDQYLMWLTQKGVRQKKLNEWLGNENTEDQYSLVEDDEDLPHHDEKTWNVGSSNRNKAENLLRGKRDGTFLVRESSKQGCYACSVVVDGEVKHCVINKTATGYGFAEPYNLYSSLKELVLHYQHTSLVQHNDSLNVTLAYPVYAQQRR

Take `Nc1ncc(-c2nc(N3CCOCC3)c3cccn3n2)c(C(F)(F)F)n1` [Example 33]: the “stability of the isolated compound” value in [1] is listed as “unstable”.

Turning to `OCCNC(=S)Nc1ccc(-c2nc(N3C[C@H]4CC[C@@H](C3)O4)c3cccn3n2)cc1` [Example 122], the “metabolic stability in HLM” value in [2] is on record as “metabolically stable”. For the same molecule, the GI50 is 41 nM with PC-3; 70.3 nM in the series with NCI-H23; 18.9 nM with SKOV-3; 62 nM with NCI 60 human cell lines; 26.8 nM with MCF-7; 110 nM in the series with A549. For the same molecule, the values for the GI50 in the series on NCI-H460 and in the series on HCT-116 were 35.9 nM and 364 nM, respectively. Also, the inhibition at 1 µM was 0% at FGFR1, 1% on HER1 (EGFR), -10% at VEGF2 and -1% at HER2. Moreover, the inhibition at 0.1 µM on PI3Kα stood at 8%; on mTOR (FRAP1), 94%. For the same molecule, in [3], the IC50 is under 500 nM. In series [4] (PO 10 mg/kg), this molecule registered a CL of 13.3 mL/min/kg. The AUC(0-t) worked out at 11400 ng·h/mL in series [4] (blood, IV 5 mg/kg) and 11900 ng·h/mL in series [4] (blood, PO 10 mg/kg). Besides, the peak concentration (Cmax) in [4] (blood, IV 5 mg/kg) was determined as 4700 ng/mL; in [4] (blood, PO 10 mg/kg) it was 1910 ng/mL. Also, the mean residence time MRT in series [4] (blood, IV 5 mg/kg) is 3.03 h; in series [4] (blood, PO 10 mg/kg), 7.33 h. The molecule also gave a clearance in series [4] (blood, IV 5 mg/kg) of 7.35 mL/min/kg. For the same molecule, the half-life in series [4] (blood, IV 5 mg/kg) was 2.13 h; in series [4] (blood, PO 10 mg/kg), 4.72 h. Moreover, in series [4] (blood, PO 10 mg/kg), the Tmax stood at 0.833 h. For the same molecule, the bioavailability in series [4] (blood, PO 10 mg/kg vs IV 5 mg/kg, read-out: Fpo (oral bioavailability)) came out at 48%.

Broadly, the GI50 is the concentration giving 50% growth inhibition. Broadly, the IC50 is the midpoint of a concentration-inhibition curve. As usually defined, the AUC(0-t) is the area under the concentration-time curve up to a stated or last time point. A lower AUC(0-t) goes with low exposure. As usually defined, the Cmax is the maximum level reached in the sampled fluid or tissue. A word on the MRT: it is the average time that molecules of a dose stay in the body. A word on the half-life: it is the time in which the quantity being followed falls by half. Usually Tmax stands for the time from dosing to the highest level. As a reminder, the bioavailability is dose-corrected exposure relative to a reference, in per cent.
